Where two headings read alike, the source gives them in different places.
How the values were obtained:
pY641-STAT6 in PBMC = molecular target: T1, pY641-STAT6 in PBMC (Homo sapiens, UniProt P42226); test: MSD-pSTAT-PBMC Assay (pSTAT6, IL-4 stimulated); assay type: cell-based; conditions: compound 3 hrs, then 1 ng/mL IL-4 for 10 min, Table 1114
T1 construct: Cryopreserved Peripheral Blood Mononuclear Cells (PBMC) are from AllCells; host or cells: cryopreserved PBMC
T1 sequence (P42226 1-847): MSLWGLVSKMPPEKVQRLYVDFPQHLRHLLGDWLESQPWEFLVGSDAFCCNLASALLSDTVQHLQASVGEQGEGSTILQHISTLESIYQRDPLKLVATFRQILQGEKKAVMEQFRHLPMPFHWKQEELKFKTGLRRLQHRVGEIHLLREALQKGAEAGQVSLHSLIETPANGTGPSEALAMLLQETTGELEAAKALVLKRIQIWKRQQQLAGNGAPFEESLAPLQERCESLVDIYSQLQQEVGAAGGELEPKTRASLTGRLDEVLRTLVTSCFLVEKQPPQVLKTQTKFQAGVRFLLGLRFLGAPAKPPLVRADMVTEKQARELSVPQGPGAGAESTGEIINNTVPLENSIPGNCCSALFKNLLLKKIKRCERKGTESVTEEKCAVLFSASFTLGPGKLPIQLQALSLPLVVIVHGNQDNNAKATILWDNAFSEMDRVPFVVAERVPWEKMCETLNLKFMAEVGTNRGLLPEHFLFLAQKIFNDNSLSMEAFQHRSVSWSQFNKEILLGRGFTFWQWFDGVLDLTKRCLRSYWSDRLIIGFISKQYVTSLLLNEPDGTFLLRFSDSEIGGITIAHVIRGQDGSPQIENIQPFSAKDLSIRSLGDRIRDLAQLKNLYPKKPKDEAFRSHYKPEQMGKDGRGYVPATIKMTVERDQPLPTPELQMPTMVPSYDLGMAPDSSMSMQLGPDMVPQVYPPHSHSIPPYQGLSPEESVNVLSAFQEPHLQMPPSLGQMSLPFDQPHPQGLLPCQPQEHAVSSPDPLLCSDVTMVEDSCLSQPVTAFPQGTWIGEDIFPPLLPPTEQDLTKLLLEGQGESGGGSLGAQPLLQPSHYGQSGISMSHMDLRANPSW
Outline: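 MSD electrochemiluminescence read-out: total STAT captured, probed with anti-pY641-STAT6 or anti-pY705-STAT3. Human PBMC, 3 h compound pretreatment, 10 min stimulation (IL-4 1 ng/mL or IL-6 10 ng/mL). Unstimulated signal subtracted, DMSO-normalized, variable-slope IC50.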

pY705-STAT3 in PBMC = molecular target: T2, pY705-STAT3 in PBMC (Homo sapiens, UniProt P40763); test: MSD-pSTAT-PBMC Assay (pSTAT3, IL-6 stimulated); assay type: cell-based; conditions: PBMC, compound 3 hrs, then 10 ng/mL IL-6 for 10 min; Table 1114; read-out: pSTAT3
T2 construct: Cryopreserved Peripheral Blood Mononuclear Cells (PBMC) are from AllCells; host or cells: cryopreserved PBMC
Outline: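 PBMC (human, cryopreserved, overnight recovery) + cpd 3 hrs → IL-6 10 ng/mL (STAT3) or IL-4 1 ng/mL (STAT6) ×10 min → lysis with protease/phosphatase inhibitors → MSD capture/phospho detection. IC50, variable slope, DMSO-normalized.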

T2 sequence (P40763 whole entry): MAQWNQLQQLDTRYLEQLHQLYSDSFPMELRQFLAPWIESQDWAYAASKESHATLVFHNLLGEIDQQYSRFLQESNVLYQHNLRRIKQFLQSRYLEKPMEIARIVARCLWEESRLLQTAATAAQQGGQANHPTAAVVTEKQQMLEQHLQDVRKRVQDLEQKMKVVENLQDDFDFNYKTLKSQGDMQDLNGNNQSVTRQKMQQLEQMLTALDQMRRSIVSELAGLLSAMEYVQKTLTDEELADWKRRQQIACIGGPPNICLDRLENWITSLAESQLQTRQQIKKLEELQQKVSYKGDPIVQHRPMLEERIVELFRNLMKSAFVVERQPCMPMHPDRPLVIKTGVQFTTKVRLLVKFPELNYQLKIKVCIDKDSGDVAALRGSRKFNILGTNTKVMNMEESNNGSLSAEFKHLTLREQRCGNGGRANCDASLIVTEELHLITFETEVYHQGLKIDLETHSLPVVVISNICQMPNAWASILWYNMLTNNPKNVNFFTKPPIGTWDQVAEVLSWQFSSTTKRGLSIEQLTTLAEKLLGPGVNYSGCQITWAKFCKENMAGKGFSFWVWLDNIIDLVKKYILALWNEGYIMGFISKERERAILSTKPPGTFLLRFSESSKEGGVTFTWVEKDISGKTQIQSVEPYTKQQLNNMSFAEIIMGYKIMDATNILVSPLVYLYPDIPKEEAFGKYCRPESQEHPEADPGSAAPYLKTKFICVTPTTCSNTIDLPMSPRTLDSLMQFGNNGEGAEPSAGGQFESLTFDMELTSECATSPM

IC50 (pY641-STAT6 in PBMC; PBMC, read-out: pSTAT6) [nM] | IC50 (pY705-STAT3 in PBMC) [nM] | Compound | IC50 (pY641-STAT6 in PBMC; pSTAT6, PBMC) [nM]
100 to 1000 | 100 to 1000 | CC(C)CC(=O)SCCOP(=O)(OCCSC(=O)CC(C)C)C(F)(F)c1ccc2sc(C(=O)N[C@H]3CCCC(C)[C@H]4CC[C@@H](C(=O)N5C[C@H](c6cc[nH]c(=O)c6)[C@@H](C#N)C5)N4C3=O)cc2c1 (single isomer, unassigned) [Compound 162, S,S′-(((((2-(((3S,6S,10aR)-3-((3R,4S or 3S,4R)-3-cyano-4-(2-oxo-1,2-dihydropyridin-4-yl)pyrrolidine-1-carbonyl)-10-methyl-5-oxodeca-hydropyrrolo[1,2-a]azocin-6-yl)carbamoyl)benzo [b]thiophen-5-yl)difluoromethyl)phosphoryl)bis(oxy))bis(ethane-2,1-diyl)) bis(3-methylbutane thioate)] | –
< 100 | > 3000 | CC(C)CC(=O)SCCOP(=O)(OCCSC(=O)CC(C)C)C(F)(F)c1ccc2sc(C(=O)N[C@H]3CCCCC4CC[C@@H](C(=O)N5C[C@H](c6ccccc6)[C@@H](C#N)C5)N4C3=O)cc2c1 (single isomer, unassigned) [Compound 163, S,S′-(((((2-(((3S,6S,10aS)-3-((3R,4S or 3S,4R)-3-cyano-4-phenylpyrrolidine-1-carbonyl)-5-oxodecahydro-pyrrolo[1,2-a]azocin-6-yl)carbamoyl)benzo[b]thiophen-5-yl)difluoromethyl)phosphoryl)bis(oxy))bis(ethane-2,1-diyl)) bis(3-methylbutane thioate)] | –
100 to 1000 | 100 to 1000 | CC(C)OC(=O)OCOP(=O)(OCOC(=O)OC(C)C)[C@H](F)c1ccc2sc(C(=O)N[C@H]3CCCC[C@H]4CC[C@@H](C(=O)N5C[C@H](c6cc[nH]c(=O)c6)[C@@H](C#N)C5)N4C3=O)cc2c1 (single isomer, unassigned) [Compound 164] | –
< 100 | 100 to 1000 | CC(C)CC(=O)SCCOP(=O)(OCOC(=O)OC(C)C)C(F)(F)c1ccc2sc(C(=O)N[C@H]3CCCC[C@H]4CC[C@@H](C(=O)N5C[C@H](c6ccccc6)[C@@H](C#N)C5)N4C3=O)cc2c1 (single isomer, unassigned) [Compound 166, S-(2-((((2-(((3S,6S,10aS)-3-((3R,4S or 3S,4R)-3-cyano-4-phenylpyrrolidine-1-carbonyl)-5-oxodecahydropyrrolo [1,2-a]azocin-6-yl)carbamoyl)benzo[b]thiophen-5-yl)difluoromethyl) (((isopropoxycarbonyl)oxy)methoxy)phosphoryl)oxy)ethyl)-3-methylbutane thioate] | –
100 to 1000 | > 3000 | CC(C)CC(=O)SCCOP(=O)(OCCSC(=O)CC(C)C)C(F)(F)c1ccc2ccc(C(=O)N[C@H]3CCCCC[C@H]4[C@H](O)C[C@@H](C(=O)N5CC(C#N)C(c6cc[nH]c(=O)c6)C5)N4C3=O)cc2c1 (single isomer, unassigned) [Compound 167, S,S′-(((((7-(((1R,3S,6S,11aS)-3-((3S,4R or 3R,4S)-3-cyano-4-(2-oxo-1,2-dihydropyridin-4-yl)pyrrolidine-1-carbonyl)-1-hydroxy-5-oxodecahydropyrrolo [1,2-a]azocin-6-yl)carbamoyl)naphthalen-2-yl)difluoromethyl)phosphoryl)bis(oxy))bis(ethane-2,1-diyl)) bis(3-methylbutane thioate)] | –
< 100 | 100 to 1000 | CC(C)CC(=O)SCCOP(=O)(OCCSC(=O)CC(C)C)C(F)(F)c1ccc2ccc(C(=O)N[C@H]3CCCC[C@H]4CC[C@@H](C(=O)N5C[C@@H](C#N)[C@H](c6cc[nH]c(=O)c6)C5)N4C3=O)cc2c1 (single isomer, unassigned) [Compound 168, S,S′-(((((7-(((3S,6S,10aS)-3-((3S,4R or 3R,4S)-3-cyano-4-(2-oxo-1,2-dihydropyridin-4-yl)pyrrolidine-1-carbonyl)-5-oxodecahydropyrrolo [1,2-a]azocin-6-yl)carbamoyl)naphthalen-2-yl)difluoromethyl)phosphoryl)bis(oxy))bis(ethane-2,1-diyl)) bis(3-methylbutane thioate)] | –
< 100 | 100 to 1000 | CC(C)(C)C(=O)OCOP(=O)(OCOC(=O)C(C)(C)C)[C@@H](F)c1ccc2sc(C(=O)N[C@H]3CCCC[C@H]4CC[C@@H](C(=O)N5C[C@@H](C#N)[C@H](c6ccccc6)C5)N4C3=O)cc2c1 (single isomer, unassigned) [Compound 184, ((((S)- or (R)-(2-(((3S,6S, 10aS)-3-((3S,4R or 3R,4S)-3-cyano-4-phenyl-pyrrolidine-1-carbonyl)-5-oxodeca-hydropyrrolo [1,2-a]azocin-6-yl)carbamoyl)benzo[b]thiophen-5-yl)fluoromethyl)phosphoryl)bis(oxy)) bis(methylene) bis(2,2-dimethyl-propanoate)] | –
< 100 | 100 to 1000 | CC(C)(C)C(=O)OCOP(=O)(OCOC(=O)C(C)(C)C)C(F)(F)c1ccc2sc(C(=O)N[C@H]3C[C@@H](O)CC[C@H]4CC[C@@H](C(=O)N5C[C@H](c6ccccc6)[C@@H](C#N)C5)N4C3=O)cc2c1 (single isomer, unassigned) [Compound 185, ((((2-(((3S,6S,8S, 10aR)-3-((3R,4S or 3S,4R)-3-cyano-4-phenyl-pyrrolidine-1-carbonyl)-8-hydroxy-5-oxodeca-hydropyrrolo [1,2-a]azocin-6-yl)carbamoyl)benzo[b]thiophen-5-yl)difluoro-methyl)phos-phoryl)bis(oxy)) bis(methylene) bis(2,2-dimethyl-propanoate)] | –
< 100 | < 100 | CC(C)(C)C(=O)OCOP(=O)(OCOC(=O)C(C)(C)C)C(F)(F)c1ccc2ccc(C(=O)N[C@H]3CCCC[C@H]4CC[C@@H](C(=O)N5C[C@@H](C#N)[C@]6(C5)C(=O)Nc5ccccc56)N4C3=O)cc2c1 (single isomer, unassigned) [Compound 193] | –

Compound | IC50 (pY641-STAT6 in PBMC; PBMC, read-out: pSTAT6) [nM] | IC50 (pY705-STAT3 in PBMC) [nM] | IC50 (pY641-STAT6 in PBMC; pSTAT6, PBMC) [nM]
CC(C)(C)C(=O)OCOP(=O)(OCOC(=O)C(C)(C)C)[C@@H](F)c1ccc2sc(C(=O)N[C@H]3CCCC[C@H]4CC[C@@H](C(=O)N5C[C@@H](C#N)[C@H](c6ccccc6)C5)N4C3=O)cc2c1 (single isomer, unassigned) [Compound 183, ((((R)- or (S)-(2-(((3S,6S,10aS)-3-((3S,4R or 3R,4S)-3-cyano-4-phenylpyrrolidine-1-carbonyl)-5-oxodecahydropyrrolo[1,2-a]azocin-6-yl)carbamoyl)benzo[b]thiophen-5-yl)fluoromethyl)phosphoryl)bis(oxy))bis(methylene)bis(2,2-dimethylpropanoate))] | < 100 | 100 to 1000 | –
CC(C)OC(=O)[C@H](C)NP(=O)(Cc1ccc2sc(C(=O)N[C@H]3CCCC[C@H]4CC[C@@H](C(=O)N5C[C@H](c6cc[nH]c(=O)c6)[C@@H](C#N)C5)N4C3=O)cc2c1)Oc1ccccc1 (single isomer, unassigned) [Compound 197, isopropyl (((2-(((3S,6S,10aS)-3-((3R,4S or 3S,4R)-3-cyano-4-(2-oxo-1,2-dihydro-pyridin-4-yl)pyrrolidine-1-carbonyl)-5-oxodecahydro-pyrrolo[1,2-a]azocin-6-yl)carbamoyl)benzo[b]thiophen-5-yl)methyl) (phenoxy)phosphoryl)-L-alaninate] | – | > 3000 | > 3000

Source: patent US20250215029A1 (Recludix Pharma, Inc., priority 2022, published 2025)
